Patent US8143288B2, “Inhibitors of HCV replication” (priority 2005, dated 2012)

Each compound was assayed on HCV 1b-377-neo replicon cells (assay: HCV replicon FRET assay). Settings: Hepatitis C virus; HCV replicon; read-out: Activity (EC50).
Type: cell-based
Text: The HCV replicon cell line was isolated from colonies as described by Lohman, et. al. (Science 1999, 285, 110-113, expressly incorporated by reference in its entirety) and used for all experiments. The HCV replicon has the nucleic acid sequence set forth in EMBL Accession No.: AJ242652, the coding sequence of which is from nt 1801 to 7758.
The coding sequence of the published HCV replicon was synthesized by Operon Technologies, Inc. (Alameda, Calif.), and the fall-length replicon was then assembled in plasmid pGem9zf(+) (Promega, Madison, Wis.) using standard molecular biology techniques. The replicon consists of (i) the HCV 5′ UTR fused to the first 12 amino acids of the capsid protein, (ii) the neomycin phosphotransferase gene (neo), (iii) the IRES from encephalomyocarditis virus (EMCV), and (iv) HCV NS3 to NS5B genes and the HCV 3′ UTR. Plasmid DNAs were linearized with ScaI and RNA transcripts were synthesized in vitro using the T7 MegaScript transcription kit (Ambion, Austin, Tex.) according to manufacturer's directions.
To generate cell lines, 4×10^6 Huh-7 cells (kindly provided by R. Bartenschlager and available from Health Science Research Resources Bank, Japan Health Sciences Foundation) were electroporated (GenePulser System, Bio-Rad) with 10 micrograms(“μg”) of RNA transcript and plated into 100-mm dishes. After 24 hours, selective media containing 1.0 milligrams/milliliter (“mg/mL”) G418 was added and media was changed every 3 to 5 days. […] These cell lines were maintained at 37° C., 5% CO2, 100% relative humidity in DMEM (Cat#11965-084) Gibco-BRL, Rockville, Md., with 10% heat inactivated calf serum (Sigma), 10 mL of 100× penicillin/streptomycin (Cat#15140-122) Gibco-BRL, Rockville, Md., Geneticin (Cat#10131-027) Gibco-BRL, Rockville, Md. at 1 mg/mL. One of the cell lines (deposited as ATCC Accession No. PTA-4583 in the American Type Culture Collection) which had approximately 3,000 copies of HCV replicon RNA/cell was used for development of the assay (HCV 1b-377-neo replicon cells).
To perform the HCV FRET screening assay, 96-well cell culture plates were used. The FRET peptide (Anaspec, Inc., San Jose, Calif.) (Taliani et al., Anal. Biochem. 1996, 240, 60-67, hereby incorporated by reference in its entirety) contains a fluorescence donor, EDANS, near one end of the peptide and an acceptor, DABCYL, near the other end. The fluorescence of the peptide is quenched by […] resonance energy transfer (RET) between the donor and the acceptor, but as the NS3 protease cleaves the peptide the products are released from RET quenching and the fluorescence of the donor becomes apparent.
The assay reagent was made as follows: 5X luciferase cell culture lysis (Cat#E153A, Promega, Madison, Wis.) diluted to 1X with dH2O, NaCl added to […] final, the FRET peptide diluted to 20 micromolar (“μM”) final from a 2 mM stock. HCV 1b-377-neo replicon cells were trypsinized, placed into each well of a 96-well plate and allowed to attach overnight. The next day, the test compounds were added to columns 1 through 10; column 11 was media plus DMSO only, and column 12 contained a titration of interferon or an HCV specific inhibitor as a control (1000 units for A12, B12, 100 units for C12, D12, 10 units for E12, F12 and 1 unit for G12, H12). […] In addition, naïve Huh-7 cells could also be used to replace wells A12 and B12 as a background control.
At subsequent various times (typically 72 hours), 10% final volume Alamar blue (Cat#00-100, Trek Diagnostics, Cleveland, Ohio) was added to each well. The plates were returned to the incubator for 5 hours and then read in the Cytoflour (PE Biosystems) to determine Alamar blue conversion in each well as a measure of cellular toxicity.

SMILES | EC50
O=C(Nc1ccc(/C=C/c2ccc(NC(=O)[C@@H]3CCCN3C(=O)OCc3ccccc3)cc2)cc1)[C@@H]1CCCN1C(=O)OCc1ccccc1 [Example 2] | 0.0001 to 0.09 µM
O=C(Nc1ccc(/C=C/c2ccc(NC(=O)[C@@H]3C[C@@H](O)CN3C(=O)OCc3ccccc3)cc2)cc1)[C@@H]1C[C@@H](O)CN1C(=O)OCc1ccccc1 [Example 4] | 0.0001 to 0.09 µM
O=C(Nc1ccc(/C=C\c2ccc(NC(=O)[C@@H]3CCCN3C(=O)Cc3ccccc3)cc2)cc1)[C@@H]1CCCN1C(=O)Cc1ccccc1 [Example 5] | 0.0001 to 0.09 µM
O=C(Nc1ccc(/C=C\c2ccc(NC(=O)[C@@H]3CCCN3C(=O)OCc3ccccc3)cc2)cc1)[C@@H]1CCCN1C(=O)OCc1ccccc1 [Example 6] | 0.0001 to 0.09 µM
O=C(Nc1ccc(/C=C/c2ccc(NC(=O)[C@@H]3C[C@H](O)CN3C(=O)OCc3ccccc3)cc2)cc1)[C@@H]1C[C@H](O)CN1C(=O)OCc1ccccc1 [Example 7] | 0.0001 to 0.09 µM
O=C(Nc1ccc(/C=C\c2ccc(NC(=O)[C@@H]3C[C@@H](O)CN3C(=O)OCc3ccccc3)cc2)cc1)[C@@H]1C[C@@H](O)CN1C(=O)OCc1ccccc1 [Example 8] | 0.1 to 1 µM
O=C(Nc1ccc(/C=C/c2ccc(NC(=O)[C@@H]3CCCCN3C(=O)OCc3ccccc3)cc2)cc1)[C@@H]1CCCCN1C(=O)OCc1ccccc1 [Example 9] | 0.0001 to 0.09 µM
O=C(Nc1ccc(/C=C/c2ccc(NC(=O)[C@@H]3Cc4ccccc4CN3C(=O)OCc3ccccc3)cc2)cc1)[C@@H]1Cc2ccccc2CN1C(=O)OCc1ccccc1 [Example 10] | 1 to 10 µM
O=C(Nc1ccc(/C=C/c2ccc(NC(=O)[C@@H]3COCN3C(=O)OCc3ccccc3)cc2)cc1)[C@@H]1COCN1C(=O)OCc1ccccc1 [Example 11] | 1 to 10 µM
O=C(Nc1ccc(/C=C/c2ccc(NC(=O)C3CC(=O)N(Cc4ccc(Cl)cc4)C3)cc2)cc1)C1CC(=O)N(Cc2ccc(Cl)cc2)C1 (centres unmarked) [Example 12] | 1 to 10 µM
O=C(Nc1ccc(/C=C/c2ccc(NC(=O)C3CC(=O)N(Cc4cccs4)C3)cc2)cc1)C1CC(=O)N(Cc2cccs2)C1 (centres unmarked) [Example 13] | 1 to 10 µM
O=C(Nc1ccc(/C=C/c2ccc(NC(=O)C3CC(=O)N(CCc4cccs4)C3)cc2)cc1)C1CC(=O)N(CCc2cccs2)C1 (centres unmarked) [Example 14] | 1 to 10 µM
CO[C@@H]1C[C@@H](C(=O)Nc2ccc(/C=C/c3ccc(NC(=O)[C@@H]4C[C@H](OC)CN4C(=O)OCc4ccccc4)cc3)cc2)N(C(=O)OCc2ccccc2)C1 [Example 15] | 0.0001 to 0.09 µM
CCO[C@@H]1C[C@@H](C(=O)Nc2ccc(/C=C/c3ccc(NC(=O)[C@@H]4C[C@H](OCC)CN4C(=O)OCc4ccccc4)cc3)cc2)N(C(=O)OCc2ccccc2)C1 [Example 16] | 1 to 10 µM
CO[C@H]1C[C@@H](C(=O)Nc2ccc(/C=C/c3ccc(NC(=O)[C@@H]4C[C@H](OC)CN4C(=O)OCc4ccccc4)cc3)cc2)N(C(=O)OCc2ccccc2)C1 [Example 17] | 1 to 10 µM
CCO[C@H]1C[C@@H](C(=O)Nc2ccc(/C=C/c3ccc(NC(=O)[C@@H]4C[C@H](OCC)CN4C(=O)OCc4ccccc4)cc3)cc2)N(C(=O)OCc2ccccc2)C1 [Example 18] | 1 to 10 µM
O=C(Nc1ccc(/C=C/c2ccc(NC(=O)[C@@H]3Cc4ccccc4N3C(=O)OCc3ccccc3)cc2)cc1)[C@@H]1Cc2ccccc2N1C(=O)OCc1ccccc1 [Example 19] | 0.0001 to 0.09 µM
CC(C)(C)OC(=O)N1c2ccccc2C[C@H]1C(=O)Nc1ccc(/C=C/c2ccc(NC(=O)[C@@H]3Cc4ccccc4N3C(=O)OC(C)(C)C)cc2)cc1 [Example 20] | 0.1 to 1 µM
CC(C)(C)OC(=O)N1CCC[C@H]1C(=O)Nc1ccc(/C=C/c2ccc(NC(=O)[C@@H]3CCCN3C(=O)OC(C)(C)C)cc2)cc1 [Example 21] | 0.1 to 1 µM
CC(C)(C)OC(=O)N1CCC[C@H]1C(=O)Nc1ccc(/C=C/c2ccc(NC(=O)[C@@H]3CCCN3)cc2)cc1 [Example 22] | 1 to 10 µM
COc1cccc(CC(=O)N2CCC[C@H]2C(=O)Nc2ccc(/C=C/c3ccc(NC(=O)[C@@H]4CCCN4C(=O)Cc4cccc(OC)c4)cc3)cc2)c1 [Example 25] | 0.1 to 1 µM

SMILES | EC50
O=C(Nc1ccc(/C=C/c2ccc(NC(=O)[C@@H]3CCCN3C(=O)CC3CC3)cc2)cc1)[C@@H]1CCCN1C(=O)CC1CC1 [Example 26] | 0.0001 to 0.09 µM
COCCOCC(=O)N1CCC[C@H]1C(=O)Nc1ccc(/C=C/c2ccc(NC(=O)[C@@H]3CCCN3C(=O)COCCOC)cc2)cc1 [Example 27] | 0.1 to 1 µM
CN(C)CC(=O)N1CCC[C@H]1C(=O)Nc1ccc(/C=C/c2ccc(NC(=O)[C@@H]3CCCN3C(=O)CN(C)C)cc2)cc1 [Example 28] | 0.1 to 1 µM
CC(Oc1cccc(Cl)c1)C(=O)N1CCC[C@H]1C(=O)Nc1ccc(/C=C/c2ccc(NC(=O)[C@@H]3CCCN3C(=O)C(C)Oc3cccc(Cl)c3)cc2)cc1 (some centres unmarked) [Example 29] | 0.1 to 1 µM
O=C(O)CCC(=O)N1CCC[C@H]1C(=O)Nc1ccc(/C=C/c2ccc(NC(=O)[C@@H]3CCCN3C(=O)CCC(=O)O)cc2)cc1 [Example 30] | 0.1 to 1 µM
O=C(Nc1ccc(/C=C/c2ccc(NC(=O)[C@@H]3CCCN3C(=O)C3CC3)cc2)cc1)[C@@H]1CCCN1C(=O)C1CC1 [Example 31] | 0.0001 to 0.09 µM
COc1cccc(C(=O)N2CCC[C@H]2C(=O)Nc2ccc(/C=C/c3ccc(NC(=O)[C@@H]4CCCN4C(=O)c4cccc(OC)c4)cc3)cc2)c1 [Example 32] | 0.0001 to 0.09 µM
COc1cccc(CCC(=O)N2CCC[C@H]2C(=O)Nc2ccc(/C=C/c3ccc(NC(=O)[C@@H]4CCCN4C(=O)CCc4cccc(OC)c4)cc3)cc2)c1 [Example 33] | 0.1 to 1 µM
COc1ccc2[nH]c(C)c(CC(=O)N3CCC[C@H]3C(=O)Nc3ccc(/C=C/c4ccc(NC(=O)[C@@H]5CCCN5C(=O)Cc5c(C)[nH]c6ccc(OC)cc56)cc4)cc3)c2c1 [Example 34] | 0.0001 to 0.09 µM
COc1ccc2[nH]cc(CC(=O)N3CCC[C@H]3C(=O)Nc3ccc(/C=C/c4ccc(NC(=O)[C@@H]5CCCN5C(=O)Cc5c[nH]c6ccc(OC)cc56)cc4)cc3)c2c1 [Example 35] | 0.0001 to 0.09 µM
Cc1cc(CC(=O)N2CCC[C@H]2C(=O)Nc2ccc(/C=C/c3ccc(NC(=O)[C@@H]4CCCN4C(=O)Cc4cc(C)no4)cc3)cc2)on1 [Example 36] | 0.0001 to 0.09 µM
O=C(Nc1ccc(/C=C/c2ccc(NC(=O)[C@@H]3CCCN3C(=O)COc3cccc(Cl)c3)cc2)cc1)[C@@H]1CCCN1C(=O)COc1cccc(Cl)c1 [Example 38] | 0.1 to 1 µM
CC(C)C(=O)N1CCC[C@H]1C(=O)Nc1ccc(/C=C/c2ccc(NC(=O)[C@@H]3CCCN3C(=O)C(C)C)cc2)cc1 [Example 39] | 0.1 to 1 µM
CC(C)CC(=O)N1CCC[C@H]1C(=O)Nc1ccc(/C=C/c2ccc(NC(=O)[C@@H]3CCCN3C(=O)CC(C)C)cc2)cc1 [Example 40] | 0.1 to 1 µM
Cn1cnc(CC(=O)N2CCC[C@H]2C(=O)Nc2ccc(/C=C/c3ccc(NC(=O)[C@@H]4CCCN4C(=O)Cc4cn(C)cn4)cc3)cc2)c1 [Example 41] | 0.0001 to 0.09 µM
O=C(Nc1ccc(/C=C/c2ccc(NC(=O)[C@@H]3CCCN3C(=O)Cc3c[nH]cn3)cc2)cc1)[C@@H]1CCCN1C(=O)Cc1c[nH]cn1 [Example 42] | 1 to 10 µM
O=C(Nc1ccc(/C=C/c2ccc(NC(=O)[C@@H]3CCCN3C(=O)Cc3ccncc3)cc2)cc1)[C@@H]1CCCN1C(=O)Cc1ccncc1 [Example 43] | 0.1 to 1 µM
O=C(Nc1ccc(/C=C/c2ccc(NC(=O)[C@@H]3CCCN3C(=O)C3CCC3)cc2)cc1)[C@@H]1CCCN1C(=O)C1CCC1 [Example 44] | 0.0001 to 0.09 µM
CCC(=O)N1CCC[C@H]1C(=O)Nc1ccc(/C=C/c2ccc(NC(=O)[C@@H]3CCCN3C(=O)CC)cc2)cc1 [Example 46] | 0.1 to 1 µM
COCC(=O)N1CCC[C@H]1C(=O)Nc1ccc(/C=C/c2ccc(NC(=O)[C@@H]3CCCN3C(=O)COC)cc2)cc1 [Example 47] | 0.1 to 1 µM
